In patent US9802907B2, “2-aryl selenazole compound and pharmaceutical composition thereof” (JIANGSU ATOM BIOSCIENCE AND PHARMACEUTICAL CO., LTD., priority 2012, dated 2017):

Target: xanthine oxidase (Bos taurus (Bovine), UniProt P80457)
Details: read-out: Xanthine Oxidase Inhibition Activity (IC50); xanthine oxidase sourced from milk, hypoxanthine substrate, 0.1 M Tris-HCl pH 7.5, 30° C.
Experimental: The inhibition of the activity of xanthine oxidase (XO) is tested through a coupled enzymatic reaction of xanthine oxidase, horseradish peroxidase (HRP) and a substrate thereof. First, xanthine oxidase oxidizes hypoxanthine to produce xanthine and hydrogen peroxide, and further oxidizes xanthine to produce uric acid and hydrogen peroxide. […] The fluorescence intensity of resorufin is determined by using a fluorescence microplate, which is in direct proportion to the activity of xanthine oxidase.
A certain amount of a test compound and a control compound, febuxostat (by Beijing Lianben Pharm-chemicals Tech. Co., Ltd.) were dissolved in DMSO (by Sinopharm Chemical Reagent Co., Ltd.). A 2.5-fold serial dilution of the test compound was diluted with DMSO in a 96-well polypropylene reaction plate (by Greiner Bio One), so as to obtain a 200-fold dilution. The solution was further diluted in ultrapure water to obtain a 3-fold serial dilution. […]
9 μL reaction solution A and 9 μL 3-fold serial dilution of the test compound were mixed in a 96-well test plate (by Greiner Bio One), placed on a flat plate type oscillator, and mixed at 30° C. for 30 min at 100 rpm. […] The fluorescence intensity at 530 nm exciting light and 590 nm emitted light was determined by using a fluorescence microplate (Perkin Elmer Vitor X4).

Sequence of xanthine oxidase (P80457 whole entry): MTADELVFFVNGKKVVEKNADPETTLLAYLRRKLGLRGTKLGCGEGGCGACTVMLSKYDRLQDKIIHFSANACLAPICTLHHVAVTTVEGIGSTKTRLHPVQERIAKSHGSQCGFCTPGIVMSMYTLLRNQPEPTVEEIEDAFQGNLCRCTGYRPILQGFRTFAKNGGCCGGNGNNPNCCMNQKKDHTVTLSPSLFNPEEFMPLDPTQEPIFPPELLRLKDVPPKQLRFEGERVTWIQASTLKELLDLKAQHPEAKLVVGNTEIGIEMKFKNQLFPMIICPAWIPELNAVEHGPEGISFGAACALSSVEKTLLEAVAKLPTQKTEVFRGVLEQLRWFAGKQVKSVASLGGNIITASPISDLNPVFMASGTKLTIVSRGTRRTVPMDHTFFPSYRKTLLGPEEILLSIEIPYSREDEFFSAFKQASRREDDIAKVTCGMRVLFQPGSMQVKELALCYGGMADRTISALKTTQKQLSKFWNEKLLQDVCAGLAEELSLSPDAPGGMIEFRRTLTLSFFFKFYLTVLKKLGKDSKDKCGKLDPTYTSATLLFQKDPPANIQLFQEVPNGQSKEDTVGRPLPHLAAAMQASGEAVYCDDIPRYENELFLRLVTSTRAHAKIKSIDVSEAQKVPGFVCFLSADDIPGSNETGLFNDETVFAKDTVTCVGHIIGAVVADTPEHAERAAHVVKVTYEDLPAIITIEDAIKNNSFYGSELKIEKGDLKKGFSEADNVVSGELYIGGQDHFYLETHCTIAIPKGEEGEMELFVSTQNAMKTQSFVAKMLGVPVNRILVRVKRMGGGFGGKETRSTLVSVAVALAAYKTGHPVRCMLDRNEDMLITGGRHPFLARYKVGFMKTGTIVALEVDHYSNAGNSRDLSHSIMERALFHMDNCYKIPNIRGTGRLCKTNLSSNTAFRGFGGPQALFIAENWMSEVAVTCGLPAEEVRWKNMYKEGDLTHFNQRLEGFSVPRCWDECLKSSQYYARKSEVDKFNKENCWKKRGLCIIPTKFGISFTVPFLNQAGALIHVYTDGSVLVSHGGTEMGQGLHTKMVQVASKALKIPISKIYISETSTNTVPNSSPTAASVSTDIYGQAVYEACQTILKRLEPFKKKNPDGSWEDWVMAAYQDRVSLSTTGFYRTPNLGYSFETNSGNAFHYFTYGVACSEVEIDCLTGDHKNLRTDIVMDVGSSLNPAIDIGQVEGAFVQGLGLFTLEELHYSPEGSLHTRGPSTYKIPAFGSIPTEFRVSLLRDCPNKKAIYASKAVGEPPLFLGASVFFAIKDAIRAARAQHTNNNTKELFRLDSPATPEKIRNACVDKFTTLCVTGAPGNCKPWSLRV

Substance: 2-[3-bromo-4-(aniline formyl)-phenyl]-4-methyl-selenazole-5-carboxylic acid [Compound 67]
- IC50: > 0.1 µM
